Results taken from US10294202B2, “Pyrrolidinones as herbicides” (FMC Corporation, priority 2013, dated 2019).
Where two headings read alike, the source gives them in different places.

Columns and labels:
[1] = test system: barnyardgrass; experiment: Test A pre-/postemergence herbicide test; type: in vivo, Echinochloa crus-galli; conditions: for pest or weed control at 125 g/ha / pest or weed control at 500 g/ha / pest or weed control at 1000 g/ha: Echinochloa crus-galli, 240 h, read-out: Plant response rating, Barnyardgrass; for pest or weed control at 1000 g/ha: 1000 g ai/ha
Outline: (§1)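 Approximately 10 days after treatment in the greenhouse, plants were compared with untreated controls and given a 0–100 visual injury rating. Applications: preemergence directed soil spray; postemergence on 2–10 cm plants at the one- to two-leaf stage.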

[2] = test system: corn; experiment: Test A pre-/postemergence herbicide test; type: in vivo, Zea mays; conditions: for Corn plant response rating (crop injury, 0 = no effect, 100 = complete kill) at 125 g/ha / Corn plant response rating (crop injury, 0 = no effect, 100 = complete kill) at 500 g/ha / Corn plant response rating (crop injury, 0 = no effect, 100 = complete kill) at 1000 g/ha: Zea mays, 240 h; for Corn plant response rating (crop injury, 0 = no effect, 100 = complete kill) at 1000 g/ha: 1000 g ai/ha
Outline: as §1

[3] = test system: kochia; experiment: Test A pre-/postemergence herbicide test; type: in vivo, Kochia scoparia; conditions: for Plant response rating, Kochia: 0 to 100 scale
Outline: as §1

[4] = test system: blackgrass; experiment: Test A postemergence herbicide test; type: in vivo, Alopecurus myosuroides
Outline: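 Plants at the one- to two-leaf stage, 2–10 cm tall, grown in loam/sand pots, received postemergence sprays of the test chemicals. After about 10 days in the greenhouse, injury was scored visually against untreated controls on a 0–100 scale (0 none, 100 complete control).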

[5] = test system: galium; experiment: Test C pre-/postemergence herbicide test; type: in vivo, Galium aparine
Source text: (§2) Seeds of plant species selected from blackgrass (Alopecurus myosuroides), ryegrass, Italian (Italian ryegrass, Lolium multiflorum), wheat (winter wheat, Triticum aestivum), galium (catchweed bedstraw, Galium aparine), corn (Zea mays), crabgrass, large (large crabgrass, Digitaria sanguinalis), foxtail, giant (giant foxtail, Setaria faberii), johnsongrass (Sorghum halepense), lambsquarters (Chenopodium album), morningglory (Ipomoea coccinea), nutsedge, yellow (yellow nutsedge, Cyperus esculentus), pigweed (Amaranthus retroflexus), ragweed (common ragweed, Ambrosia elatior), soybean (Glycine max), barnyardgrass (Echinochloa crus-galli), oilseed rape (Brassica napus), waterhemp (common waterhemp, Amaranthus rudis), kochia (Kochia scoparia), oat, wild (wild oat, Avena fatua), surinam grass (Brachiaria decumbens), foxtail, green (green foxtail, Setaria viridis), goosegrass (Eleusine indica), bromegrass, downy (downy bromegrass, Bromus tectorum), nightshade (eastern black nightshade, Solanum ptycanthum), cocklebur (common cocklebur, Xanthium strumarium), cupgrass, woolly (woolly cupgrass, Eriochloa villosa), bermudagrass (Cynodon dactylon), sunflower, (common oilseed sunflower, Helianthus annuus), Russian thistle (Salsola kali) and velvetleaf (Abutilon theophrasti) were planted into a blend of loam soil and sand and treated preemergence with test chemicals formulated in a non-phytotoxic solvent mixture which included a surfactant. At the same time, plants selected from these crop and weed species and also barley (winter barley, Hordeum vulgare), […]), chickweed (common chickweed, Stellaria media), deadnettle (henbit deadnettle, Lamium amplexicaule), and canarygrass (littleseed canarygrass, Phalaris minor) were planted in pots containing Redi-Earth® planting medium (Scotts Company, 14111 Scottslawn Road, Marysville, Ohio 43041) comprising spaghnum peat moss, vermiculite, wetting agent and starter nutrients and treated with postemergence applications of test chemicals formulated in the same manner. Plants ranged in height from 2 to 18 cm (1- to 4-leaf stage) for postemergence treatments. Treated plants and controls were maintained in a greenhouse for 13 to 15 days, after which time all species were compared to controls and visually evaluated. Plant response ratings, summarized in Table C, are based on a scale of 0 to 100 where 0 is no effect and 100 is complete control. A dash (-) response means no test result.

[6] = test system: lambsquarters; experiment: Test C pre-/postemergence herbicide test; type: in vivo, Chenopodium album
Source text: as §2

[7] = Postemergence, 125 g ai/ha, 0 to 100 scale, 0 no effect, 100 complete control
[8] = Postemergence, 500 g ai/ha, 0 to 100 scale (0 no effect, 100 complete control)
[9] = Preemergence, 125 g ai/ha, visual rating on 0 to 100 scale (0 no effect, 100 complete control)
[10] = preemergence, 500 g ai/ha, 0 to 100 scale (0 no effect, 100 complete control)
[11] = preemergence, 500 g ai/ha, 0 to 100 scale
[12] = Postemergence, 125 g ai/ha, 0 to 100 scale, 0 is no effect, 100 is complete control
[13] = Postemergence, 31 g ai/ha, scale 0 (no effect) to 100 (complete control)
[14] = Postemergence, 62 g ai/ha, scale 0 to 100 (0 no effect, 100 complete control)
[15] = Postemergence, 125 g ai/ha, scale 0 to 100 (0 no effect, 100 complete control)
[16] = Postemergence, 250 g ai/ha, scale 0 to 100 (0 no effect, 100 complete control)
[17] = Preemergence, 31 g ai/ha, scale 0 to 100, 0 is no effect and 100 is complete control
[18] = Preemergence, 62 g ai/ha, scale 0 to 100
[19] = Preemergence, 125 g ai/ha, scale 0 to 100 (0 no effect, 100 complete control)
[20] = post-emergence, Postemergence, 125 g ai/ha, 0 to 100 scale, 0 no effect, 100 complete control
[21] = post-emergence, Postemergence, 500 g ai/ha, 0 to 100 scale (0 no effect, 100 complete control)
[22] = pre-emergence, preemergence, 500 g ai/ha, 0 to 100 scale (0 no effect, 100 complete control)
[23] = pre-emergence, preemergence, 500 g ai/ha, 0 to 100 scale
[24] = Preemergence, 31 g ai/ha, scale 0 to 100 (0 no effect, 100 complete control)
[25] = Preemergence, 250 g ai/ha, scale 0 to 100 (0 no effect, 100 complete control)
[26] = post-emergence, Postemergence, 0 to 100 scale (0 no effect, 100 complete control)
[27] = pre-emergence, Preemergence, visual rating on 0 to 100 scale (0 no effect, 100 complete control), approx. 10 days

Compound	Plant response rating, Barnyardgrass [1, 7]	Plant response rating, Barnyardgrass [1, 8]	Barnyardgrass plant response rating [1, 9]	Plant response rating, Barnyardgrass [1, 10]	Plant response rating, Corn [2, 7]	Plant response rating, Corn [2, 8]	Corn plant response rating [2, 9]	Plant response rating, Corn [2, 11]	Plant response rating, Galium [5, 18]	Plant response rating, Galium [5, 19]	Plant response rating, Lambsquarters [6, 18]	Plant response rating, Lambsquarters [6, 19]	pest or weed control at 125 g/ha [1, 20] [%]	pest or weed control at 500 g/ha [1, 21] [%]	pest or weed control at 500 g/ha [1, 22] [%]	Corn plant response rating (crop injury, 0 = no effect, 100 = complete kill) at 125 g/ha [2, 20] [%]	Corn plant response rating (crop injury, 0 = no effect, 100 = complete kill) at 500 g/ha [2, 21] [%]	Corn plant response rating (crop injury, 0 = no effect, 100 = complete kill) at 500 g/ha [2, 23] [%]	Galium plant response rating [5, 24]	Plant response rating, Galium [5, 25]	also measured
O=C1NCC(c2ccc(F)c(F)c2)C1C(=O)Nc1ccccc1C(F)(F)F (racemic) [Compound 6]	40	80	50	80	0	0	0	0	–	–	–	–	–	–	–	–	–	–	–	–	–
O=C1NCC(c2cccc(C(F)F)c2)C1C(=O)Nc1ccccc1F (racemic) [Compound 210]	–	–	–	–	–	–	–	–	–	–	–	–	–	–	–	–	–	–	–	–	Plant response rating, Barnyardgrass ([1]; 125 g ai/ha, visual rating, 0 to 100 scale, 0 no effect, 100 complete control, approximately 10 days, preemergence): 60; Plant response rating, Barnyardgrass [1, 12]: 80; Barnyardgrass plant response rating (0 to 100 scale, 0 is no effect, 100 is complete control) ([1]; Postemergence, 500 g ai/ha): 90; Plant response rating, Barnyardgrass ([1]; preemergence, 500 g ai/ha, 0 to 100 scale, 0 is no effect and 100 is complete control): 90; Plant response rating, Corn [2, 12]: 0; Corn plant response rating (0 to 100 scale, 0 is no effect, 100 is complete control) ([2]; Postemergence, 500 g ai/ha): 60; Plant response rating, Kochia ([3]; 125 g ai/ha, visual rating, 0 no effect, 100 complete control, approximately 10 days, preemergence): 0; Plant response rating, Kochia ([3]; Postemergence, 125 g ai/ha, 0 is no effect, 100 is complete control): 20; Kochia plant response rating (0 to 100 scale, 0 is no effect, 100 is complete control) ([3]; Postemergence, 500 g ai/ha): 60; Plant response rating, Kochia ([3]; preemergence, 500 g ai/ha, 0 is no effect and 100 is complete control): 30; Plant response rating, Blackgrass ([4]; 125 g ai/ha, 0 to 100 scale, 0 is no effect, 100 is complete control): 30; Blackgrass plant response rating (0 to 100 scale, 0 is no effect, 100 is complete control) ([4]; 500 g ai/ha): 60
O=C1NCC(c2ccc(F)c(F)c2)C1C(=O)Nc1cccc(F)c1F (racemic) [Compound 101]	80	90	90	90	0	50	0	0	40	90	85	90	–	–	–	–	–	–	–	–	Plant response rating, Galium [5, 13]: 50; Plant response rating, Galium [5, 14]: 50; Plant response rating, Galium [5, 15]: 30; Plant response rating, Galium [5, 16]: 70; Galium plant response rating [5, 17]: 0; Plant response rating (scale of 0 to 100), Galium ([5]; Preemergence, 250 g ai/ha): 85; Plant response rating, Lambsquarters [6, 13]: 10; Plant response rating, Lambsquarters [6, 14]: 25; Plant response rating, Lambsquarters [6, 15]: 35; Plant response rating, Lambsquarters [6, 16]: 70; Lambsquarters plant response rating [6, 17]: 30; Plant response rating (scale of 0 to 100), Lambsquarters ([6]; Preemergence, 250 g ai/ha): 90
O=C1NCC(c2ccccc2)C1(Br)C(=O)Nc1ccccc1F (stereo not shown) [Compound 93, 3-bromo-N-(2-fluorophenyl)-2-oxo-4-phenyl-3-pyrrolidinecarboxamide]	–	–	50	–	–	–	0	–	–	–	–	–	10	60	90	0	0	0	–	–	–
O=C1NCCC1C(=O)N(c1ccc(F)c(F)c1)c1ccccc1F (stereo not shown) [Compound 5, N-(3,4-difluorophenyl)-N-(2-fluorophenyl)-2-oxo-3-pyrrolidinecarboxamide]	–	–	70	–	–	–	0	–	5	–	95	95	60	90	90	0	0	0	0	40	–
O=C1NCC(c2ccc(F)c(F)c2)C1C(=O)Nc1cccc(F)c1F (stereo not shown) [Compound 17, N-(2,3-difluorophenyl)-4-(3,4-difluorophenyl)-2-oxo-3-pyrrolidinecarboxamide]	–	–	–	–	–	–	–	–	70	70	60	60	–	–	–	–	–	–	0	90	Plant response rating, Galium [5, 13]: 0; Plant response rating, Galium [5, 14]: 0; Plant response rating, Galium [5, 15]: 0; Plant response rating, Galium [5, 16]: 0; pest or weed control at 1000 g/ha [1, 26]: 90%; pest or weed control at 1000 g/ha [1, 27]: 90%; Corn plant response rating (crop injury, 0 = no effect, 100 = complete kill) at 1000 g/ha [2, 26]: 60%; Corn plant response rating (crop injury, 0 = no effect, 100 = complete kill) at 1000 g/ha [2, 27]: 60%; Plant response rating, Lambsquarters [6, 13]: 0; Plant response rating, Lambsquarters [6, 14]: 0; Plant response rating, Lambsquarters [6, 15]: 0; Plant response rating, Lambsquarters [6, 16]: 0
O=C1NCC(c2ccc(Cl)c(Cl)c2)C1C(=O)Nc1ccccc1F (racemic) [Compound 14]	60	80	80	90	0	0	0	0	0	70	–	–	–	–	–	–	–	–	0	85	–
O=C1NCC(Br)(c2ccccc2)C1C(=O)Nc1ccccc1F (stereo not shown) [Compound 92, 4-bromo-N-(2-fluorophenyl)-2-oxo-4-phenyl-3-pyrrolidinecarboxamide]	–	–	60	–	–	–	0	–	–	–	–	–	20	70	90	0	0	0	–	–	–
